Test results taken from US11464770B2, “Anticancer pharmaceutical composition” (NATIONAL CANCER CENTER, priority 2016, dated 2022).
pIC50: −log10 of the molar value. Where two headings read alike, the source gives them in different places.

Legend:
renal cancer cell lines = assay: Cell based assay, cell viability (CellTiter-Glo), renal cancer cell lines; conditions: Homo sapiens; ACHN cells
Protocol: (§1) Commercially available bladder cancer, prostate cancer, lung cancer, breast cancer, blood cancer, pancreatic cancer, colorectal cancer, brain cancer, neuroblastoma, melanoma, liver cancer, cervical carcinoma, ovarian cancer, renal cancer, and papilloma cell lines were each treated with trypsin-EDTA and cultured, followed by being seeded in each well of a 96 well plate. After 24 hours of treatment at constant temperature, the respective cells were treated with the candidate compound so that a final concentration became 0 to 2 μM. The treated cells were additionally cultured for 72 hours, and cell viability was measured by using an ATP detection method (CellTiter-Glo® Luminescent Cell Viability Assay, Promega).

neuroblastoma cell lines = assay: Cell based assay, cell viability (CellTiter-Glo), neuroblastoma cell lines; conditions: Homo sapiens; SH-SY5Y cell line
Protocol: as §1

[1] = tested on: pancreatic cancer cell lines (e.g. MIA PaCa-2); assay: Cell based assay, cell viability (CellTiter-Glo), pancreatic cancer cell lines; conditions: Homo sapiens
Protocol: as §1

[2] = pancreatic cancer cell line AsPC-1, 72 hours, read-out: IC50, AsPC-1
[3] = pancreatic cancer cell line BxPC-3, 72 hours, read-out: IC50, BxPC-3
[4] = pancreatic cancer cell line CFPAC-1, 72 hours, read-out: IC50, CFPAC-1
[5] = pancreatic cancer cell line Capan-1, 72 hours, read-out: IC50, Capan-1
[6] = pancreatic cancer cell line Capan-2, 72 hours, read-out: IC50, Capan-2
[7] = pancreatic cancer cell line MIA PaCa-2, 72 hours, read-out: IC50, MIA PaCa-2
[8] = pancreatic cancer cell line PANC-1, 72 hours, read-out: IC50, PANC-1

Compound	pIC50 (renal cancer cell lines)	pIC50 (neuroblastoma cell lines)	pIC50 [1, 2]	pIC50 [1, 3]	pIC50 [1, 4]	pIC50 [1, 5]	pIC50 [1, 6]	pIC50 [1, 7]	pIC50 [1, 8]
COc1cccc2[nH]c(SCc3ccc(S(F)(F)(F)(F)F)cc3)c(C(C)=O)c(=O)c12 [Compound 92, 3-acetyl-5-methoxy-2-((4-(pentafluoro--sulfanyl)benzyl)thio)quinolin-4(1H)-one]	< 5.70	< 5.70	< 5.70	< 5.70	< 5.00	< 5.70	< 5.70	< 5.70	< 5.70
CSc1c(C(C)=O)c(=O)c2c(Cl)ccc(Br)c2n1S(=O)(=O)c1ccc(C(C)(C)C)cc1 [Compound 40, 3-acetyl-8-bromo-1-((4-(tert-butyl)phenyl)sulfonyl)-5-chloro-2-(methylthio)quinolin-4(1H)-one]	< 5.70	< 5.70	< 5.70	< 5.70	< 5.00	< 5.70	< 5.70	< 5.70	< 5.70
COc1ccccc1[S+]([O-])c1[nH]c2c(Br)ccc(Cl)c2c(=O)c1C(C)=O (stereo not drawn) [Compound 15, 3-acetyl-8-bromo-5-chloro-2-((2-methoxyphenyl)sulfinyl)quinolin-4(1H)-one]	< 5.70	< 5.70	< 5.70	< 5.70	< 5.00	< 5.70	< 5.70	5.79	< 5.70
CC(=O)c1c([S+](C)[O-])[nH]c2c(Cl)ccc(Cl)c2c1=O (stereo not drawn) [Compound 6, 3-acetyl-5,8-dichloro-2-(methylsulfinyl)quinolin-4(1H)-one]	< 5.70	< 5.70	< 5.70	< 5.70	< 5.00	< 5.70	< 5.70	5.87	< 5.70
Cc1cc(C[S+]([O-])c2[nH]c3c(Cl)ccc(Cl)c3c(=O)c2C(=O)c2ccccc2)no1 (stereo not drawn) [Compound 88, 3-benzoyl-5,8-dichloro-2-(((5-methylisoxazol-3-yl)methyl)sulfinyl)quinolin-4(1H)-one]	< 5.70	5.82	< 5.70	< 5.70	< 5.00	< 5.70	< 5.70	< 5.70	< 5.70
CC(=O)c1c(SCc2ccccc2)nc2c(Br)ccc(Cl)c2c1O [Compound 52, 1-(2-(benzylthio)-8-bromo-5-chloro-4-hydroxyquinolin-3-yl)ethan-1-one]	< 5.70	< 5.70	< 5.70	< 5.70	< 5.00	< 5.70	< 5.70	< 5.70	< 5.70
CC(=O)c1c([S+]([O-])Cc2ccc(C(F)(F)F)o2)[nH]c2c(F)ccc(F)c2c1=O (stereo not drawn) [Compound 81, 3-acetyl-5,8-difluoro-2-(((5-(trifluoromethyl)furan-2-yl)methyl)sulfinyl)quinolin-4(1H)-one]	< 5.70	< 5.70	< 5.70	< 5.70	< 5.00	< 5.70	< 5.70	< 5.70	< 5.70
O=C(c1ccccc1)c1c([S+]([O-])Cc2ccc(S(F)(F)(F)(F)F)cc2)[nH]c2c(F)ccc(F)c2c1=O (stereo not drawn) [Compound 87, 3-benzoyl-5,8-difluoro-2-((4-(pentafluoro--sulfanyl)benzyl)sulfinyl)quinolin-4(1H)-one]	< 5.70	< 5.70	< 5.70	< 5.70	< 5.00	< 5.70	< 5.70	< 5.70	< 5.70
Cc1cc(C[S+]([O-])c2[nH]c3c(Cl)ccc(Cl)c3c(=O)c2C(=O)C2CC2)no1 (stereo not drawn) [Compound 97, 5,8-dichloro-3-(cyclopropanecarbonyl)-2-(((5-methylisoxazol-3-yl)methyl)sulfinyl)quinolin-4(1H)-one]	5.88	6.22	5.76	< 5.70	< 5.00	5.82	< 5.70	6.07	< 5.70
CSc1c(C(C)=O)c(=O)c2c(Cl)ccc(Br)c2n1S(=O)(=O)c1ccc([N+](=O)[O-])cc1 [Compound 38, 3-acetyl-8-bromo-5-chloro-2-(methylthio)-1-((4-nitrophenyl)sulfonyl)quinolin-4(1H)-one]	< 5.70	< 5.70	< 5.70	< 5.70	< 5.00	< 5.70	< 5.70	< 5.70	< 5.70
CC(=O)c1c([S+]([O-])Cc2ccc(C(=O)c3ccccc3)cc2)[nH]c2c(Br)ccc(Cl)c2c1=O (stereo not drawn) [Compound 63, 3-acetyl-2-((4-benzoylbenzyl)sulfinyl)-8-bromo-5-chloroquinolin-4(1H)-one]	< 5.70	< 5.70	< 5.70	< 5.70	< 5.00	< 5.70	< 5.70	< 5.70	< 5.70
CC(=O)c1c(SCc2ccccc2)[nH]c2c(Br)ccc(Cl)c2c1=O [Compound 3, 3-acetyl-2-(benzylthio)-8-bromo-5-chloroquinolin-4(1H)-one]	< 5.70	< 5.70	< 5.70	< 5.70	< 5.00	< 5.70	< 5.70	< 5.70	< 5.70
CC(=O)c1c([S+]([O-])C(C)c2ccccc2)[nH]c2c(Br)ccc(Cl)c2c1=O (stereo not drawn) [Compound 26, 3-acetyl-8-bromo-5-chloro-2-((1-phenylethyl)sulfinyl)quinolin-4(1H)-one]	< 5.70	< 5.70	< 5.70	< 5.70	< 5.00	< 5.70	< 5.70	< 5.70	< 5.70
CC(=O)c1c(SCc2ccc([N+](=O)[O-])cc2)[nH]c2c(Br)ccc(Cl)c2c1=O [Compound 32, 3-acetyl-8-bromo-5-chloro-2-((4-nitrobenzyl)thio)quinolin-4(1H)-one]	< 5.70	< 5.70	< 5.70	< 5.70	< 5.00	< 5.70	< 5.70	< 5.70	< 5.70
CC(=O)c1c(SC(C)C)[nH]c2c(Br)ccc(Cl)c2c1=O [Compound 24, 3-acetyl-8-bromo-5-chloro-2-(isopropylthio)quinolin-4(1H)-one]	< 5.70	< 5.70	< 5.70	< 5.70	< 5.00	< 5.70	< 5.70	< 5.70	< 5.70
CC(=O)c1c(SCc2ccccc2)n(C(=O)c2ccc(Br)cc2)c2c(Br)ccc(Cl)c2c1=O [Compound 23, 3-acetyl-2-(benzylthio)-8-bromo-1-(4-bromobenzoyl)-5-chloroquinolin-4(1H)-one]	< 5.70	< 5.70	< 5.70	< 5.70	< 5.00	< 5.70	< 5.70	< 5.70	< 5.70
COCCNc1ccc(C[S+]([O-])c2[nH]c3c(Br)ccc(Cl)c3c(=O)c2C(C)=O)cn1 (stereo not drawn) [Compound 105, 3-acetyl-8-bromo-5-chloro-2-(((6-((2-methoxyethyl)amino)pyridin-3-yl)methyl)sulfinyl)quinolin-4(1H)-one]	< 5.70	< 5.70	< 5.70	< 5.70	< 5.00	< 5.70	< 5.70	< 5.70	< 5.70
CC(=O)c1c([S+]([O-])Cc2ccc(S(F)(F)(F)(F)F)cc2)[nH]c2c(Br)ccc(Cl)c2c1=O (stereo not drawn) [Compound 68, 3-acetyl-8-bromo-5-chloro-2-((4-(pentafluoro-16-sulfanyl)benzyl)sulfinyl)quinolin-4(1H)-one]	< 5.70	< 5.70	< 5.70	< 5.70	< 5.00	< 5.70	< 5.70	5.95	< 5.70
